Where no end group is shown, it is not given here.
Key:
[1] = tested on: β2 adrenergic receptor internalization in BSC-1 cells; assay: β adrenergic receptor internalization assay, β2AR; assay type: cell-based; conditions: 30 µM, 20 min pre-treatment, isoproterenol-induced
uptake of shiga toxin B = assay type: cell-based
[2] = tested on: β1 adrenergic receptor internalization in BSC-1 cells; assay: β adrenergic receptor internalization assay, β1AR; assay type: cell-based; conditions: 30 µM, 20 min pre-treatment, isoproterenol-induced
[3] = tested on: uptake of cholera toxin B; assay type: cell-based
[4] = tested on: membrane capacitance of NIH 3T3 cells (balance between exocytosis and endocytosis); assay: Cell capacitance in whole cell patch-clamp; assay type: cell-based; conditions: 10th minute over 1st minute of whole cell recording; peptides 1 mM; paired t-test
Method: Cells were patched with pipettes made of borosilicate glass (GC150F, Harvard Apparatus) and pulled with a vertical Narishige puller (World Precision Instruments). The solution contained (in mM): 130–140 KCH3SO3, 1 EGTA, 0.1 CaCl2, 10–20 HEPES, 4 ATP (sodium or magnesium salt), 0.4 Na-GTP (or GTPγS when indicated), 5 phosphocreatine and 3 sodium ascorbate. pH was adjusted to 7.2 using KOH and osmolarity to ~300 mOsm L^−1. Sodium ascorbate was omitted in earlier recordings but was added for better stability. Chloride ions either came from 2 mM KCl, 10 mM NaCl or 4 mM MgCl2 (when Na-ATP was used) in various trials. All salts were purchased from Sigma-Aldrich. Cells were voltage-clamped at −60 mV with an EPC10 amplifier (HEKA) with series resistance and cell capacitance estimation every 4 s in the whole cell mode. The digital triggers of the amplifier were used to drive the electrovalves for pH changes. Cell viability and dialysis efficiency were made sure of by monitoring […] throughout the recording using the Patchmaster software (HEKA): series resistance should remain below 10 MΩ and holding current should remain above −100 pA. If either of these criteria was not respected (except holding current for recordings in GTPγS, see Supplementary Fig. 3D), the recording was not considered for analysis. On a given experimental day at least one control recording (i.e. without any peptide) was performed to ensure recording quality. All these recordings were pooled in the ‘control’ condition (n = 63 on 42 experimental days). […]
Supplementary Figure 5: Characteristics of the whole cell recordings in the different conditions of this study. A, Scheme of the equivalent electrical circuit of a cell recorded in the whole cell configuration. […]
This is likely due to the activation of GTP dependent trimeric G proteins which activate various channels in the presence of GTPγS, thereby increasing the holding current. […] F, Ratios of Cm recorded during the 10 th minute of recording over Cm recorded during the 1st minute. […]

[5] = tested on: clathrin mediated endocytosis (TfR-SEP) in NIH 3T3 cells; assay: ppH assay combined with patch-clamp dialysis; assay type: cell-based; conditions: for event frequency ratio f = FWC/FCA: average ± SEM, SEM
Method: To do so, we monitored cellular endocytic activity using the ppH assay with new developments for fully automated analysis on a large number of cells (See “Methods” and Supplementary Fig. 4). We combined this assay, which monitors in real time the endocytic activity of cells, with the patch-clamp technique in order to dialyse the relevant peptide at a known concentration inside the cellular cytoplasm to inhibit endocytosis acutely. Each recording consisted of 5 min in cell-attached mode (CA) with no dialysis followed by 10 min in whole cell mode (WC) during which the inhibitors were dialysed (Fig. 5a, b). Each recording therefore had its own internal control condition, i.e., the cell-attached mode, from which we obtained the frequency ratio f = FWC/FCA, where F is the event frequency recorded during the indicated mode. Of note, the electrical parameters of patch clamp recordings were similar in all conditions (Supplementary Fig. 5). To assess the innocuousness of this assay, we monitored the endocytic activity of unperturbed cells vs. cells dialysed with a control solution (see methods for composition). Patching the cells minimally affected their endocytic activity over a 10 min period (event frequency f = 67.3 ± 4.3%, n = 60, vs. 90.7 ± 14.9% in no patching recordings, n = 8, p = 0.58).
NIH 3T3 cells (ECACC 93061524) were cultured in DMEM supplemented with 1% sodium pyruvate, 1% glutamax and 10% fetal calf serum (Invitrogen). Cells were incubated at 37 °C in 5% CO2 until use and subcultured every 2 to 4 days for maintenance up to passage 20. Cells were transfected with 1.5 μg of TfR-SEP plasmid 24 h prior to imaging and patch clamp. Care was taken to find the right balance between sufficient fluorescent signal to allow for proper imaging and reasonable overexpression to diminish potential saturation artefacts. Best results were obtained using Fugene 6 (Promega) as the transfection reagent but Lipofectamine 2000 (Invitrogen) has also been used in this study due to a temporary arrest of Fugene 6 production by the provider. All transfections were performed according to the manufacturers’ recommendations. Four to eight hours after transfection, cells were seeded at a density of ~70,000 cells ml^−1 on 18 mm glass coverslips coated with poly-L-lysine (3 min application of 0.1 mM polylysine (Sigma P2636) in borate buffer, pH 8.0 followed by a quick rinse in PBS) and used the next day.
Fast solution exchange was controlled by electro-valves (Lee company) connected to a theta glass pipette (TG150, Harvard Apparatus) pulled to ∼100-μm tip size using a vertical puller (Narishige, World Precision Instruments) placed above the recorded cell. Cells were alternatively perfused with HEPES or MES buffered saline solutions (HBS/MBS) containing (in mM): 135 NaCl, 5 KCl, 0.4 MgCl2, 1.8 CaCl2, 1 D-glucose and 20 HEPES or MES. The pH was adjusted to 7.4 or 5.5 using NaOH and osmolarity to 310–315 mOsm L^−1 with NaCl.
Cells were patched with pipettes made of borosilicate glass (GC150F, Harvard Apparatus) and pulled with a vertical Narishige puller (World Precision Instruments). The solution contained (in mM): 130–140 KCH3SO3, 1 EGTA, 0.1 CaCl2, 10–20 HEPES, 4 ATP (sodium or magnesium salt), 0.4 Na-GTP (or GTPγS when indicated), 5 phosphocreatine and 3 sodium ascorbate. pH was adjusted to 7.2 using KOH and osmolarity to ~300 mOsm L^−1. Sodium ascorbate was omitted in earlier recordings but was added for better stability. Chloride ions either came from 2 mM KCl, 10 mM NaCl or 4 mM MgCl2 (when Na-ATP was used) in various trials. All salts were purchased from Sigma-Aldrich. Cells were voltage-clamped at −60 mV with an EPC10 amplifier (HEKA) with series resistance and cell capacitance estimation every 4 s in the whole cell mode. The digital triggers of the amplifier were used to drive the electrovalves for pH changes. […]

[6] = target: dD15-N (divalent peptide: two D15 motifs linked through their N termini by PEG linkers); assay: SPR; biotinylated peptides immobilised (50-90 RU) on biotin CAPture chips, GST-amphSH3 or Ntr-bSUMO-amphSH3 as analyte; 25 °C; 10 mM sodium phosphate pH 7.4, 150 mM NaCl, 0.01% Tween-20; single cycle kinetics, 1:1 Langmuir fit, estimated KDs
[7] = target: GST-amphSH3 (SH3 domain of murine amphiphysin1 fused to glutathione S-transferase) (not stated | murine) (UniProt Q7TQF7); assay: SEC; analytical size exclusion chromatography, Superdex200 Increase 10/300 GL, PBS + 0.01% Tween-20, 0.75 mL/min
[8] = target: dD15-N (divalent peptide: two D15 motifs linked through their N termini by PEG linkers); assay: SPR; biotinylated peptides immobilised (50-90 RU) on biotin CAPture chips, SUMO-amphSH3 as analyte; 25 °C; 10 mM sodium phosphate pH 7.4, 150 mM NaCl, 0.01% Tween-20; steady-state (equilibrium) analysis
[9] = target: D44 peptide (derived from the dynamin1 PRD, bears motifs A and B); assay: as above
[10] = target: dD15-N (divalent peptide: two D15 motifs linked through their N termini by PEG linkers); assay: as above; remark: listed apart in the source
[11] = target: T1, SUMO-amphSH3 (SH3 domain of murine amphiphysin1 fused to the small ubiquitin-like modifier) (murine, UniProt Q7TQF7 607-686); assay: as above; conditions: both partners purified
T1 construct: amphiphysin 1, mouse, SH3 domain, residues 607-686, subcloned from pAmph1-mCherry into a modified pET-SUMO vector with a TEV site after the SUMO tag; A TEV cleavage site and multiple cloning site lie between SUMO and the SH3 domain; Monomer by SEC; also called SUMO-SH3; monomeric amphSH3; source: E. coli BL21-CodonPlus (DE3)-RIPL, auto-induction at 16 °C, purified (Ni-NTA, SEC); not shown: SUMO, …
T1 sequence (looked up): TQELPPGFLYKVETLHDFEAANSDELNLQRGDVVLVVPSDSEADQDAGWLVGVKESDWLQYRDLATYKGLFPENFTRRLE

O=C(N/N=C/c1cc(O)c(O)cc1O)c1cc2ccccc2cc1O [Dyngo4a]
effect on β2AR internalization [1]: fully block
inhibition of shiga toxin B uptake (uptake of shiga toxin B): only partially sensitive to inhibition
effect on β1AR internalization [2]: fully block
inhibition of cholera toxin B uptake [3]: only partially sensitive to inhibition

Ac-YALGGAPPVPSRPGASPDPFGPPPQVPSRPNRAPPGVPRITISDP-NH2 (N-terminus and C-terminus assumed) [D44]
change of Cm, Cm(10')/Cm(1') [4]: no significant decrease in Cm
event frequency ratio f = FWC/FCA ([5]; 100 µM peptide in patch pipette, event frequency 8–10 min whole cell over 3–5 min cell attached, same cell, n = 13 (D15)): 41.4 ± 9.6%
event frequency ratio f = FWC/FCA ([5]; 1 mM peptide in patch pipette, event frequency 8–10 min whole cell over 3–5 min cell attached, same cell, n = 22 (D15), 15 (D44), 6 (dD15-C)): 20.6 ± 5.2%
inhibition of endocytosis on dialysis ([5]; peptide dialysed through patch pipette, 3T3 cells, ppH assay): fully inhibited CCV formation

Ntr-bSUMO-amphSH3 complex (biotinylated SUMO-amphSH3 bound to tetrameric neutravidin) (from UniProt Q7TQF7 607-686)
Kd [6]: 0.0045 µM

GST-amphSH3 (SH3 domain of murine amphiphysin1 fused to glutathione S-transferase) (from UniProt Q7TQF7 607-686) (domain or fragment)
stoichiometry N [7]: 2
Kd [6]: 0.509 µM

Nc1nc2c(ncn2[C@@H]2O[C@H](COP(=O)(O)OP(=O)(O)OP(O)(O)=S)[C@@H](O)[C@H]2O)c(=O)[nH]1 [GTPγS, reference compound]
change of Cm, Cm(10')/Cm(1') [4]: no significant decrease in Cm
event frequency ratio f = FWC/FCA ([5]; GTP replaced by GTPγS in the pipette solution, n = 4): 11.2 ± 4.1%

B1: SUMO-amphSH3 (SH3 domain of murine amphiphysin1 fused to the small ubiquitin-like modifier) (domain or fragment)
chain: T1 sequence (looked up)
Kd [8]: 65 µM
Kd [9]: 37 µM
Kd [10]: 66 µM

B2: D15 peptide (monovalent, from the dynamin1 PRD, holds motif B) (peptide)
chain: PPPQVPSRPNRAPPG-NH2
modifications: also: N-terminal biotin via TTDS spacer (biotinylated form) or N-terminal acetyl (form used in cells)
Kd [11]: 102 ± 2 µM

Reference: publication PMC6773865, “Functional recruitment of dynamin requires multimeric interactions for efficient endocytosis” (Nature Communications, 2019)
